{"source": "patent US20140309295A1", "about": "“ANTIEPILEPTIC, HYPOCHOLESTEROLEMIC AND NEUROPROTECTIVE COMPOUND” (NEURON BIOPHARMA, S.A., priority 2009, published 2014)", "key": {"[1]": {"tested_on": "human neuroblastoma SK-N-MC cells", "experiment": "Protection against neuronal death induced by apoptosis (camptothecin), WST-1", "type": "cell-based", "settings": "20 nM camptothecin", "procedure": "The assay was performed on human neuroblastoma SK-N-MC cells in culture from the American Type Culture Collection (ATCC), in all cases strict rules of sterility were followed and the manipulation was performed in class II biological safety cabinets following European standard EN 12469. The cells were maintained in the following culture medium: Minimum Essential Medium Eagle (MEM) supplemented with 1 mM sodium pyruvate, 2 mM L-glutamine, 0.1 mM non-essential amino acids, 0.05 mg/ml gentamicin and 10% fetal bovine serum.\nThe inhibition caused by compound NST0037 of cell death caused by treatment with camptothecin generating cell cycle arrest was analyzed. Camptothecin is an inhibitor of Topoisomerase I, it therefore prevents DNA duplication and triggers cell cycle arrest and death due to apoptosis. These cells, not exceeding 15 passages, were seeded on 96-well plates treated for adherent cells with a cell concentration of 5×10^4 cells/well; 3 wells of the plate were seeded for each condition of the assay.\nAfter 24 hours of cell incubation at 37° C. and 5% CO2, the cell treatments were performed with 100 μl of total volume for the following conditions: • Control: culture medium (medium) • Camptothecin (CPT): medium plus camptothecin 20 nM, causing death of 50% of the cells. • Camptothecin plus NST0037: medium plus camptothecin (20 nM) plus NST0037 at 1, 4, 10, 20, 40 or 100 μM.\nThe cells were incubated (at 37° C. and 5% CO2) with these treatments for 22 hours, after which time the WST-1 reagent (Roche) was added. The Test WST-1 is based on the measurement of metabolic activity. Cell damage causes the loss of the ability of cells to obtain the energy necessary to maintain their metabolic functions and cell growth, therefore the metabolically active (live) cells reduce tetrazolium salt to formazan by means of the succinate-tetrazolium reductase system (of the mitochondrial respiratory chain). The formazan which is formed can be detected colorimetrically since it has an absorbance of 440 nm. The reading was taken in a plate reader at 440 nm 2 hours after adding the reagent."}, "[2]": {"target": "T1, HMGR enzyme (Homo sapiens, UniProt P04035)", "T1 sequence (P04035 426-888 limits assumed)": "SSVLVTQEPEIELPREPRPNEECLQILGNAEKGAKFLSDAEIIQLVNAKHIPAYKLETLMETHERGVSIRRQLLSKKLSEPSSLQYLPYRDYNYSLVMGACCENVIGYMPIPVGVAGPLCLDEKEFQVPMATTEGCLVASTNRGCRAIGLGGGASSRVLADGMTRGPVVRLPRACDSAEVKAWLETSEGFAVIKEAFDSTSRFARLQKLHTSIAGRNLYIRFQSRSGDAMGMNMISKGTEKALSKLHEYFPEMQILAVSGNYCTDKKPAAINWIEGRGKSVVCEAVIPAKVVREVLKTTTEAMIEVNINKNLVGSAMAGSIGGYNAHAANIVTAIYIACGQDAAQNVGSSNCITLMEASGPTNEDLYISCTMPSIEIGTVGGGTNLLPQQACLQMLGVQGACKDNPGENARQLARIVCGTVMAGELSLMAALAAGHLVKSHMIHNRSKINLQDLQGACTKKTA", "experiment": "Inhibition of HMGR enzyme activity (NADPH absorbance 340 nm)", "type": "biochemical", "settings": "acid form, 37° C.", "procedure": "Due to the nature of the compound, the degree of inhibition of the HMGR enzyme by compound NST0037 was determined since this enzyme is key in cellular cholesterol synthesis and in the physiological regulation of said synthesis. […] For the reaction, HMGR uses NADPH as a reducing agent and 3-hydroxy-3-methylglutaryl coenzyme A (HMGCoA) as a substrate, producing mevalonic acid, CoASH and NADP+. The reduction of the absorbance at which NADPH (340 nm) is absorbed is a direct measurement of the catalytic activity of HMGR and serves to calculate the inhibition percentages of different compounds. In order to take the HMGR inhibition, the assay was performed on a 96-well plate, with a total reaction volume of 200 μl. The reaction buffer (50 mM KH2PO4, 1 M KCl, 2 mg/ml Bovine Serum Albumin [BSA] and 5 mM DTT, at pH=7.3) was prepared at the time the reaction was conducted and was maintained at 37° C. […] The acid form of the compounds is used in all the cases.\nThe reduction of absorbance at 340 nm allows calculating the percentage of HMGR enzyme activity with respect to the control. The IC50 were determined by means of the Trimmed Spearman-Karber method (Version 1.5)."}, "[3]": {"tested_on": "Aβ(1-40) and Aβ(1-42) secreted by SK-N-MC cells overexpressing APP", "experiment": "Secretion of β-amyloid peptide in SK-N-MC cells overexpressing APP (ELISA)", "type": "cell-based, human", "procedure": "The assay was performed on human neuroblastoma SK-N-MC cells in culture from the American Type Culture Collection (ATCC), stably transfected with a construct carried by the APP gene (beta-amyloid precursor protein, Gene ID: 351) in isoform 695, which is the most frequent variant expressed in neurons, whereby overexpression of the APP protein is achieved. In all cases strict rules of sterility were followed and the manipulation was performed in class II biological safety cabinets following European standard EN 12469. […]\nThe cells were incubated (at 37° C. and 5% CO2) with these treatments for 48 hours, 500 μl of conditioned medium then being collected to perform the measurements. […] The two most frequent Aβ species, 1-40 and 1-42, were measured. […] The amount of Aβ(1-40) and Aβ(1-42) of the conditioned medium was analyzed for each treatment by means of ELISA (Enzyme-linked immunosorbent assay), using the “beta amyloid 40 ELISA” and “beta amyloid 42 ELISA” kit (Biosource), following the recommendations of the manufacturer. The results were quantified by using an increasing concentration curve with synthetic peptides. […]"}}}
{"smiles": "CCC(CC)C(=O)O[C@H]1C[C@@H](C)C=C2C=C[C@H](C)[C@H](CC[C@@H]3C[C@@H](O)CC(=O)O3)[C@H]21", "note": "[NST0037, (1S,2S,6R,8S,8aR)-1,2,6,7,8,8a-hexahydro-3,7-dimethyl-8-[2-[(2R,4R)-tetrahydro-4-hydroxy-6-oxo-2H-pyran-2-yl]ethyl]-1-naphthalenyl-2-ethyl-butyrate]", "values": [{"measurement": "protection against death caused by camptothecin", "setting": "[1]; 4 μM NST0037", "value": 18, "unit": "%"}, {"measurement": "protection against death caused by camptothecin", "setting": "[1]; 10 μM NST0037", "value": 28, "unit": "%"}, {"measurement": "protection against death caused by camptothecin", "setting": "[1]; 40 μM NST0037", "value": 27, "unit": "%"}, {"measurement": "protection against death caused by camptothecin", "setting": "[1]; 100 μM NST0037", "value": 27, "unit": "%"}, {"measurement": "HMGR inhibition potency compared with atorvastatin", "setting": "[2]", "value": "surprisingly close to that of more potent statin, atorvastatin"}, {"measurement": "secreted Aβ(1-40) with respect to control cells", "setting": "[3]; 10, 40 and 100 μM of NST0037, 48 hours", "value": "a reduction is obtained"}, {"measurement": "secreted Aβ(1-42) with respect to control cells", "setting": "[3]; 10 and 40 μM of NST0037, 48 hours", "value": "a reduction is obtained"}]}
